The numbers were not newly measured in patent publication US10258574B2, “Method of preparing itraconazole preparation” (CHANGZHOU PHARMACEUTICAL FACTORY CO., LTD., priority 2015, dated 2019), which cites them from elsewhere.

For the data set the following is noted: rat; clinical relevance yet unclear.

Turning to 2-hydroxypropyl-β-cyclodextrin, the carcinogenicity finding entry is on record as “cause pancreatic cancer”.
